Test results taken from ChEMBL document CHEMBL3425489, “X-ray crystal structures of Escherichia coli RNA polymerase with switch region binding inhibitors enable rational design of squaramides with an improved fraction unbound to human plasma protein” (J Med Chem, 2015).
≈ marks a conversion by molar mass, not a printed value.

Columns and labels:
[1] = Inhibition of Escherichia coli switch region of RNA polymerase after 1 hr by transcription-coupled translation assay
[2] = octanol/water, pH 7.4
Description: (§2) Partition coefficient, log D of the compound at pH 7.4 by shake flask method

[3] = tested on: Plasma; assay: (§1) Fraction unbound (%) in human plasma at 10 uM by LC/MS-MS analysis; assay type: ADME, cell-free; settings: 10 µM
[4] = Equilibrium solubility of the compound in phosphate buffer by LC-MS analysis
[5] = as §1; assay type: ADME, cell-free
[6] = tested on: Haemophilus influenzae; assay: Antibacterial activity against Haemophilus influenzae acrB by broth microdilution method; assay type: functional
[7] = physchem; settings: octanol/water, pH 7.4
Description: as §2

Q: Which results are given for `Cc1noc(C)c1S(=O)(=O)Nc1c(N2CCC(C)CC2)c(=O)c1=O`?
A: IC50 [1]: > 100 µM; logD [2]: -1; Fu [3]: 1.6%; solubility thermodynamic [4]: 773 µM (≈ 273 µg/mL)

Q: For `Cc1noc(C)c1S(=O)(=O)Nc1c(N2CCC(Cc3ccccc3)CC2)c(=O)c1=O`, which IC50 [1] is on record?
A: Its IC50 is 0.28 µM.

Q: What about the fraction unbound at 10 µM [5] of the same compound?
A: The fraction unbound at 10 µM was under 0.01.

Q: And the MIC [6]?
A: Its MIC is 200 µM (≈ 85.9 µg/mL).

Q: What about the logD [7] of the same compound?
A: The logD was 0.1.

Q: And the solubility thermodynamic [4]?
A: Its solubility thermodynamic is over 1000 µM.

Q: With `O=c1c(NS(=O)(=O)c2ccccc2)c(N2CCC(Cc3ccccc3)CC2)c1=O` as the compound, how does the IC50 [1] read?
A: Its IC50 is 2.1 µM.

Q: What about the logD [2] of the same compound?
A: The logD was 0.2.

Q: And the Fu [3]?
A: The Fu was under 1%.

Q: And the MIC [6]?
A: Its MIC is 200 µM (≈ 82.1 µg/mL).

Q: What about the solubility thermodynamic [4] of the same compound?
A: Its solubility thermodynamic is over 1000 µM.

Q: What does the source list for `Cc1nn(C(F)F)cc1S(=O)(=O)Nc1c(N2CCC(Cc3ccccc3)CC2)c(=O)c1=O`?
A: IC50 [1]: 7.9 µM; logD [2]: -0.1; Fu [3]: < 1%; MIC [6]: 100 µM (≈ 46.4 µg/mL); solubility thermodynamic [4]: > 1000 µM

Q: For `Cc1noc(C)c1C(=O)Nc1c(N2CCC(Cc3ccccc3)CC2)c(=O)c1=O`, which IC50 [1] is on record?
A: The IC50 was over 100 µM.

Q: What about the logD [2] of the same compound?
A: Its logD is 1.7.

Q: What about the Fu [3] of the same compound?
A: Its Fu is under 1%.

Q: And the solubility thermodynamic [4]?
A: Its solubility thermodynamic is 508 µM (≈ 200 µg/mL).

Q: With `Cc1noc(C)c1S(=O)(=O)Nc1c(N2CCC(c3ccccc3)CC2)c(=O)c1=O` as the compound, how does the IC50 [1] read?
A: The IC50 was 26 µM.

Q: What about the logD [2] of the same compound?
A: Its logD is -0.6.

Q: And the Fu [3]?
A: Its Fu is under 1%.

Q: What about the solubility thermodynamic [4] of the same compound?
A: The solubility thermodynamic was 763 µM (≈ 317 µg/mL).

Q: With `Cc1noc(C)c1S(=O)(=O)Nc1c(N2CCCC(Cc3ccccc3)C2)c(=O)c1=O` (centres undefined) as the compound, how does the IC50 [1] read?
A: The IC50 was 71 µM.

Q: And the logD [2]?
A: The logD was -0.3.

Q: What about the Fu [3] of the same compound?
A: The Fu was under 1%.

Q: And the solubility thermodynamic [4]?
A: The solubility thermodynamic was 985 µM (≈ 423 µg/mL).

Q: Which IC50 [1] does the source give for `Cc1ccc(CC2CCN(c3c(NS(=O)(=O)c4c(C)noc4C)c(=O)c3=O)CC2)cc1` here?
A: The IC50 was 0.29 µM.

Q: And the logD [2]?
A: Its logD is 0.5.

Q: And the Fu [3]?
A: Its Fu is under 1%.

Q: What about the MIC [6] of the same compound?
A: Its MIC is 12.5 µM (≈ 5.54 µg/mL).

Q: And the solubility thermodynamic [4]?
A: The solubility thermodynamic was over 1000 µM.

Q: With `Cc1noc(C)c1S(=O)(=O)Nc1c(N2CCC(CCc3ccccc3)CC2)c(=O)c1=O` as the compound, how does the IC50 [1] read?
A: The IC50 was 0.32 µM.

Q: And the logD [2]?
A: Its logD is 0.

Q: And the Fu [3]?
A: The Fu was under 1%.

Q: And the solubility thermodynamic [4]?
A: The solubility thermodynamic was 636 µM (≈ 282 µg/mL).

Q: For `Cc1noc(C)c1S(=O)(=O)Nc1c(N2CCN(Cc3ccc(C#N)cc3)CC2)c(=O)c1=O`, which IC50 [1] is on record?
A: The IC50 was 1.5 µM.

Q: What about the logD [2] of the same compound?
A: Its logD is -1.3.

Q: And the Fu [3]?
A: The Fu was 2.9%.

Q: And the MIC [6]?
A: The MIC was 200 µM (≈ 91.1 µg/mL).

Q: And the solubility thermodynamic [4]?
A: The solubility thermodynamic was over 1000 µM.

Q: With `COc1ccc(CN2CCN(c3c(NS(=O)(=O)c4c(C)noc4C)c(=O)c3=O)CC2)cc1` as the compound, how does the IC50 [1] read?
A: Its IC50 is 3 µM.

Q: What about the logD [2] of the same compound?
A: The logD was -0.9.

Q: And the Fu [3]?
A: The Fu was 1.8%.

Q: What about the MIC [6] of the same compound?
A: The MIC was over 200 µM.

Q: And the solubility thermodynamic [4]?
A: Its solubility thermodynamic is 497 µM (≈ 229 µg/mL).

Q: Which results are given for `Cc1noc(C)c1S(=O)(=O)Nc1c(N2CCN(CCc3ccccc3)CC2)c(=O)c1=O`?
A: IC50 [1]: 43 µM; logD [2]: -0.4; Fu [3]: 4.9%; solubility thermodynamic [4]: 560 µM (≈ 249 µg/mL)

Q: Which IC50 [1] does the source give for `Cc1noc(C)c1S(=O)(=O)Nc1c(N2CCC(NCc3ccc(F)cc3)CC2)c(=O)c1=O` here?
A: The IC50 was 2.7 µM.

Q: And the logD [2]?
A: The logD was 0.

Q: And the Fu [3]?
A: The Fu was 26%.

Q: And the MIC [6]?
A: Its MIC is over 200 µM.

Q: What about the solubility thermodynamic [4] of the same compound?
A: Its solubility thermodynamic is 52 µM (≈ 24.1 µg/mL).

Q: Which results are given for `Cc1noc(C)c1S(=O)(=O)Nc1c(N2CCC(NCc3ccc(C(F)(F)F)cc3)CC2)c(=O)c1=O`?
A: IC50 [1]: 0.29 µM; logD [2]: 0.8; Fu [3]: 6.6%; MIC [6]: 25 µM (≈ 12.8 µg/mL); solubility thermodynamic [4]: > 1000 µM

Q: What does the source list for `Cc1noc(C)c1S(=O)(=O)Nc1c(N2CCC(N(C)Cc3ccc(OC(F)F)cc3)CC2)c(=O)c1=O`?
A: IC50 [1]: 0.43 µM; MIC [6]: 50 µM (≈ 26.2 µg/mL)

Q: Which results are given for `Cc1noc(C)c1S(=O)(=O)Nc1c(N2CCC(N(C)Cc3ccc(Cl)cc3)CC2)c(=O)c1=O`?
A: IC50 [1]: 0.33 µM; logD [2]: 0.5; Fu [3]: 3.8%; MIC [6]: 50 µM (≈ 24.6 µg/mL); solubility thermodynamic [4]: > 1000 µM

Q: With `Cc1noc(C)c1S(=O)(=O)Nc1c(N2CCC(N(C)CC3CCCCC3)CC2)c(=O)c1=O` as the compound, how does the IC50 [1] read?
A: Its IC50 is over 100 µM.

Q: What about the logD [2] of the same compound?
A: Its logD is -0.4.

Q: What about the Fu [3] of the same compound?
A: The Fu was 38%.

Q: What about the solubility thermodynamic [4] of the same compound?
A: The solubility thermodynamic was 12.2 µM (≈ 5.67 µg/mL).

Q: For `CCCC/C(C)=C/C=C(\C)C(=O)c1c(O)cc(C(C)CC/C=C/NC(=O)OC)oc1=O` (racemic), which IC50 [1] is on record?
A: The IC50 was 1 µM.

Q: And the logD [2]?
A: The logD was -0.3.

Q: What about the Fu [3] of the same compound?
A: Its Fu is under 1%.

Q: What about the solubility thermodynamic [4] of the same compound?
A: Its solubility thermodynamic is 679 µM (≈ 293 µg/mL).

Q: With `CC(=O)NC[C@H]1CN(c2ccc(N3CCOCC3)c(F)c2)C(=O)O1` [LINEZOLID] as the compound, how does the MIC [6] read?
A: Its MIC is 12.5 µM (≈ 4.22 µg/mL).

Q: With `CO[C@H]1/C=C/O[C@@]2(C)Oc3c(C)c(O)c4c(O)c(c(/C=N/N5CCN(C)CC5)c(O)c4c3C2=O)NC(=O)/C(C)=C\C=C\[C@H](C)[C@H](O)[C@@H](C)[C@@H](O)[C@@H](C)[C@H](OC(C)=O)[C@@H]1C` [RIFAMPIN] as the compound, how does the logD [2] read?
A: The logD was 1.3.

Q: And the Fu [3]?
A: The Fu was 16.5%.

Q: And the MIC [6]?
A: Its MIC is 0.025 µM (≈ 0.0206 µg/mL).

Q: What about the solubility thermodynamic [4] of the same compound?
A: The solubility thermodynamic was 751 µM (≈ 618 µg/mL).
